Results taken from article PMC5055185, “Dual pharmacological inhibition of glutathione and thioredoxin systems synergizes to kill colorectal carcinoma stem cells” (Cancer Medicine, 2016).
“Also recorded” adds a separate entry of the source.

What was measured:
Assay type in all cases: cell-based, human
[1] = tested on: OUMS‐36 embryonic fibroblasts; test: intracellular ROS, CellROX Deep Red flow cytometry, OUMS-36; settings: treated 1 h (menadione 100 μmol/L, 30 min)
Procedure: (§1) In order to estimate the effect of each inhibitor described above, intracellular reactive oxygen species (ROS) were measured using CellROX™ Deep Red reagent (Molecular Probes). Briefly, cells were seeded on 6‐well plates at 1 × 10^6 cells per well. After cells reached 90% confluence, cells were treated with designated reagents for 1 h. CellROX™ Deep Red reagent was added at a final concentration of 5 μmol/L to the culture medium and then incubated for 30 min at 37°C. Subsequently, the medium was removed and the cells were washed with PBS and detached using 0.25% trypsin‐EDTA. The resulting fluorescence was measured using a FACS Calibur flow cytometer (Becton Dickinson, Franklin Lakes, NJ). Menadione (100 μmol/L) was added 30 min before CellROX™ Deep Red reagent treatment as a reference ROS inducer. […] CD44v9 positivity of CTOS cells was analyzed as follows: Cancer spheroids were dispersed with serial treatments of TrypLE™ (20 min, GIBCO) and Accumax™ (10 min, Innovative Cell Technologies, San Diego, CA). Cell surface CD44v9 was stained with CD44v9 antibody (Cosmobio) as well as PE‐conjugated anti‐rat IgG2a (Becton Dickinson). The fluorescence was measured using a FACS Calibur flow cytometer (Becton Dickinson). Since CTOSs contained abundant auto‐fluorescent cells, we defined FL2^+FL1^− cells as authentic PE‐positive (Fig. S4). Thus, CD44v9‐positive rate was defined as FL2^+FL1^−/total live cells and CD44v9‐positive fraction was further gated and split between CD44v9^low and CD44v9^high (Fig. S4), to calculate the mean fluorescent intensity of CD44v9^high fraction.
(§2) One hour after each drug treatment, cells were stained with CellROX DeepRed and intracellular ROS were quantified with FACS. Upper: histogram of fluorescent signal is represented. Lower. representative mean fluorescent intensity scores are shown. Note that without drug treatment (Control), intracellular ROS is higher in OUMS36 and TIG3 (embryonic fibroblasts) but lower in DLD-1 and HCT116 (CRC cell lines). ROS in DLD-1 was increased by auranofin. ROS in HCT116 was increased by all the inhibitors tested. […]

[2] = tested on: TIG‐3 embryonic fibroblasts; test: intracellular ROS, CellROX Deep Red flow cytometry, TIG-3; settings: treated 1 h (menadione 100 μmol/L, 30 min)
Procedure: as §1, §2

[3] = tested on: NRF2 target genes in colorectal CTOSs; test: qRT-PCR of NRF2 and TP53 target genes in colorectal CTOSs
Procedure: Total RNA was purified using RNAiso Plus (Takara, Osaka, Japan). Reverse transcription was performed using PrimeScript™ with gDNA Eraser (Takara). For quantifying the copy number of each mRNA, we used a StepOne™ Real‐Time PCR System (Applied Biosystems, Waltham, MA) and the Taqman® method. Data were calculated according to the modified delta‐cycle of threshold (ΔCT) method. Normalized Log2 expression was defined as follows: (Log2 expression of a gene of interest) = 30 (arbitrary constant) + (CT of 18S rRNA) − (CT of a gene of interest). We used Log2 parameter for statistical analysis because mRNA expression follows a log‐normal distribution, whereas ΔCT follows normal distribution. A gene‐specific fluorescent probe was designed using a web‐based program (https://qpcr.probefinder.com/organism.jsp). […] Gene‐specific Taqman® probes were purchased from Life Technologies, (Waltham, MA, for Cat#, see Table S1 SpreadSheet2). For PCR, Thunderbird® Probe qPCR mix (Toyobo, Osaka, Japan) was used and the PCR conditions consisted of 40 cycles of two steps (95°C for 15 sec and 60°C for 50 sec).
In order to judge the effect of drug treatments on gene expression, a repeated measures one‐way analysis of variance (ANOVA) was used to determine the variance of Log2 expression from four different groups (untreated, auranofin, CB83, and piperlongumine) using SPSS. Subsequently, the effect of each drug was determined by a paired t test as a post hoc analysis. The P‐values < 0.05 were defined as statistically significant.
In order to estimate NRF2 compensation induced by pharmacological inhibition of TXNRD (auranofin), G6PD (CB83), or GSTπ (piperlongumine), we quantified gene expression of NRF2 target genes. Activation of NRF2 protein was confirmed by NRF2 phosphorylation (Fig. S5A).

[4] = tested on: DLD‐1 CRC cell line; test: intracellular ROS, CellROX Deep Red flow cytometry, DLD-1; settings: treated 1 h (menadione 100 μmol/L, 30 min)
Procedure: as §1, with “Since CTOSs contained abundant auto‐fluorescent cells, we defined FL2^+FL1^− cells as authentic PE‐positive (Fig. S4). Thus, CD44v9‐positive rate was defined as FL2^+FL1^−/total live cells and CD44v9‐positive fraction was further gated and split between CD44v9^low and CD44v9^high (Fig. S4), to calculate the mean fluorescent intensity of CD44v9^high fraction.” left out
One hour after each drug treatment, cells were stained with CellROX DeepRed and intracellular ROS were quantified with FACS. […]

[5] = higher dose (auranofin 4, CB83 25, piperlongumine 10 μmol/L) for 24 h
[6] = lower dose (auranofin 2, CB83 12.5, piperlongumine 5 μmol/L) for 48 h

SMILES	intracellular ROS response [1]	intracellular ROS response [2]	G6PD mRNA expression change [3, 5]	GCLM mRNA expression change [3, 5]	TXNRD1 mRNA expression change [3, 5]	G6PD mRNA expression change [3, 6]	GCLM mRNA expression change [3, 6]	TXNRD1 mRNA expression change [3, 6]	intracellular ROS response [4]	GCLC mRNA expression change [3, 6]	ME1 mRNA expression change [3, 6]	TXN mRNA expression change [3, 6]
COc1cc(/C=C/C(=O)N2CCC=CC2=O)cc(OC)c1OC [Pipe, Piperlongumine]	no ROS increase	no ROS increase	up‐regulated	up‐regulated	up‐regulated	up‐regulated	up‐regulated	up‐regulated				
CC[PH](CC)(CC)[Au][S][C@@H]1O[C@H](COC(C)=O)[C@@H](OC(C)=O)[C@H](OC(C)=O)[C@H]1OC(C)=O [Aura, Auranofin]			up‐regulated	up‐regulated	up‐regulated	up‐regulated	up‐regulated	up‐regulated	increased; also recorded: increase of ROS	up‐regulated	up‐regulated	up‐regulated
